Molecules are shown by their SMILES. “And” between values parts separate entries of the source, which are not always exact repeats. Identical values can stand only once.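 Exposure lasted 48 hours, with cells grown in 96-well plates and compounds tested at five concentrations. GI50 is the concentration that inhibits growth by half. TGI: total growth inhibition.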

We go through twelve molecules from PubChem BioAssay (NCI).

Test systems include 786-0 renal; ACHN renal; HOP-62 NSCLC; HS 578T breast; LOX IMVI melanoma; M14 melanoma; MCF7 breast; RXF 393 renal; SK-MEL-2 melanoma; SNB-19 CNS.
Common to all, as to test: DTP human tumour cell line panel, 48 h

What is called GI50 is the concentration at which growth is held to half of that of the control. As a reminder, the TGI is the concentration at which net growth stops. Turning to `O=C(Nc1cc(-c2cccnc2)nc(NCCCN2CCOCC2)n1)c1cc(Br)cc(C(F)(F)F)c1`, the GI50 in the assay with 786-0 renal is 1.55 µM; in the assay on ACHN renal, 3.04 µM; in the assay with HOP-62 NSCLC, 2.71 µM; with HS 578T breast it was 2.71 µM; in the assay with LOX IMVI melanoma, 1.62 µM; with M14 melanoma, 1.67 µM. Besides, the GI50 is 2.17 µM in the assay with MCF7 breast, 1.8 µM with RXF 393 renal, 4.52 µM with SK-MEL-2 melanoma and 2.5 µM in the assay with SNB-19 CNS. Further, the TGI is 3.17 µM in the assay with 786-0 renal; 11.3 µM in the assay with ACHN renal; 9.98 µM in the assay with HOP-62 NSCLC; 8.51 µM in the assay on HS 578T breast; 3.06 µM in the assay with LOX IMVI melanoma; 3.32 µM with M14 melanoma. Also, the TGI in the assay with MCF7 breast was 9.22 µM; in the assay on RXF 393 renal, 3.61 µM; with SK-MEL-2 melanoma, 17 µM; in the assay on SNB-19 CNS, 5.75 µM.

Turning to `CCOc1cc(C(C)(C)C)ccc1C1=N[C@@](C)(c2ccc(Cl)cc2)[C@@](C)(c2ccc(Cl)cc2)N1C(=O)N1CCN(CCS(C)(=O)=O)CC1`, the GI50 with 786-0 renal was 4 µM; with ACHN renal, 0.45 µM; in the assay with HOP-62 NSCLC, 2.86 µM; with HS 578T breast, 4.1 µM; in the assay on LOX IMVI melanoma it was 1.17 µM; with M14 melanoma, 3.75 µM. Further, the GI50 in the assay on MCF7 breast was 0.606 µM; in the assay with RXF 393 renal, 1.76 µM; in the assay with SK-MEL-2 melanoma, 5.29 µM; in the assay on SNB-19 CNS, 4.4 µM. For the same molecule, the TGI was determined as 14.5 µM in the assay with 786-0 renal; 2.56 µM in the assay with ACHN renal; 8.57 µM in the assay with HOP-62 NSCLC; 23.9 µM in the assay on HS 578T breast; 3.6 µM with LOX IMVI melanoma; 14.6 µM in the assay on M14 melanoma. Besides, the TGI in the assay with MCF7 breast worked out at 3.75 µM; in the assay on RXF 393 renal, 3.74 µM; in the assay on SK-MEL-2 melanoma, 18.3 µM; in the assay with SNB-19 CNS it was 23.2 µM.

On to `CC(C)(C)C(=O)OCc1nc2cc3c(cc2c(=O)[nH]1)CCC3=O`, for which the GI50 with 786-0 renal, in the assay with ACHN renal, in the assay with HOP-62 NSCLC, in the assay on HS 578T breast, in the assay on LOX IMVI melanoma and in the assay with M14 melanoma was over 100 µM each time. Besides, the GI50 in the assay on MCF7 breast, in the assay on RXF 393 renal, in the assay on SK-MEL-2 melanoma and with SNB-19 CNS was over 100 µM throughout. The TGI in the assay with 786-0 renal, with ACHN renal, in the assay with HOP-62 NSCLC, in the assay with HS 578T breast, with LOX IMVI melanoma and with M14 melanoma was over 100 µM each time. The TGI with MCF7 breast, in the assay on RXF 393 renal, in the assay with SK-MEL-2 melanoma and with SNB-19 CNS was over 100 µM in each case.

Take `COc1cc(-c2nn(-c3ccc(NC(=O)c4cc(Cl)cc(Cl)c4)cc3)cc2-c2ccncc2)ccc1Cl`: the GI50 in the assay on 786-0 renal was 1.97 µM; with ACHN renal, over 100 µM; with HOP-62 NSCLC, 32 µM; in the assay on HS 578T breast, 3.29 µM; in the assay on LOX IMVI melanoma it was 3.09 µM; in the assay with M14 melanoma, 7.39 µM. Besides, the GI50 in the assay on MCF7 breast was over 100 µM; in the assay on RXF 393 renal it was 2.14 µM; in the assay with SK-MEL-2 melanoma it was over 100 µM; with SNB-19 CNS, over 100 µM. Also, the TGI was 7.66 µM with 786-0 renal; over 100 µM with ACHN renal; over 100 µM in the assay with HOP-62 NSCLC; over 100 µM with HS 578T breast; over 100 µM in the assay with LOX IMVI melanoma; over 100 µM in the assay on M14 melanoma. In addition, the TGI with MCF7 breast, in the assay with RXF 393 renal, with SK-MEL-2 melanoma and in the assay with SNB-19 CNS was over 100 µM throughout.

As for `O=C1c2ccccc2-c2c1c1ccccc1c(=O)n2-c1ccccc1`, the TGI in the assay on 786-0 renal is 10.6 µM; with ACHN renal, 17.1 µM; with HOP-62 NSCLC, 14.9 µM; in the assay on HS 578T breast, over 87.4 µM; in the assay on LOX IMVI melanoma, over 100 µM; with M14 melanoma, over 100 µM. For the same molecule, the TGI is over 100 µM in the assay on MCF7 breast, 15 µM in the assay with RXF 393 renal, 50.6 µM in the assay on SK-MEL-2 melanoma and 20.4 µM with SNB-19 CNS.

`Oc1ccc(Cl)cc1-c1cc(-c2ccc(F)cc2)n[nH]1`: the GI50 with 786-0 renal is 1.82 µM; in the assay with ACHN renal, 2.34 µM; with HOP-62 NSCLC, 2.98 µM; in the assay on HS 578T breast, 1.71 µM; in the assay with LOX IMVI melanoma it was 1.51 µM; with M14 melanoma it was 3.5 µM. In addition, the GI50 in the assay on MCF7 breast is 0.395 µM; in the assay with RXF 393 renal, 2.83 µM; in the assay on SK-MEL-2 melanoma it was 4.11 µM; with SNB-19 CNS it was 2.27 µM. The TGI came out at 3.41 µM in the assay on 786-0 renal; 7.2 µM in the assay on ACHN renal; 10.9 µM in the assay on HOP-62 NSCLC; 6.65 µM with HS 578T breast; 3.55 µM in the assay with LOX IMVI melanoma; 17.2 µM in the assay with M14 melanoma. Further, the TGI in the assay on MCF7 breast turned out to be 14.1 µM; in the assay with RXF 393 renal it was 7.82 µM; with SK-MEL-2 melanoma, 19.3 µM; in the assay with SNB-19 CNS, 8.27 µM.

`CN(C)CCNc1nc2ccccc2c2c(=O)c3ccccc3sc12`: the GI50 is 1.49 µM with 786-0 renal; 1.61 µM in the assay on ACHN renal; 1.94 µM with HOP-62 NSCLC; 2.89 µM in the assay with HS 578T breast; 1.37 µM with LOX IMVI melanoma; 1.86 µM in the assay with M14 melanoma. Also, the GI50 in the assay with MCF7 breast is 1.37 µM; in the assay on RXF 393 renal it was 1.51 µM; in the assay on SK-MEL-2 melanoma, 1.78 µM; in the assay with SNB-19 CNS it was 2.83 µM. Also, the TGI with 786-0 renal stood at 2.98 µM; in the assay with ACHN renal, 4.3 µM; in the assay on HOP-62 NSCLC, 4.29 µM; in the assay on HS 578T breast, 11.7 µM; with LOX IMVI melanoma, 2.8 µM; in the assay on M14 melanoma, 3.62 µM. The TGI is 3.05 µM in the assay on MCF7 breast, 4.11 µM in the assay on RXF 393 renal, 3.41 µM with SK-MEL-2 melanoma and 11.3 µM with SNB-19 CNS.

As to `N#Cc1c2c(c(-c3cccs3)n(C3OC(CO)C(O)C(O)C3O)c1=S)CCc1ccccc1-2` (centres undefined), the GI50 was 12.3 µM and 25.2 µM in the assay with 786-0 renal; 13.8 µM and > 92.2 µM with ACHN renal; 14.9 µM and 38.5 µM in the assay with HOP-62 NSCLC; over 100 µM with M14 melanoma. The TGI with 786-0 renal, with ACHN renal, with HOP-62 NSCLC, with HS 578T breast, in the assay on LOX IMVI melanoma and with M14 melanoma was over 100 µM throughout. The TGI in the assay on MCF7 breast, in the assay on RXF 393 renal, with SK-MEL-2 melanoma and with SNB-19 CNS was over 100 µM throughout.

For `C[N+](C)([O-])CCCNc1ccnc2cccc([N+](=O)[O-])c12`, the TGI in the assay on 786-0 renal is over 100 µM; in the assay on ACHN renal, over 100 µM; with HOP-62 NSCLC it was over 100 µM; in the assay with HS 578T breast, 77.6 µM; in the assay on LOX IMVI melanoma, over 100 µM; in the assay on M14 melanoma, over 100 µM. Further, the TGI in the assay on MCF7 breast is over 100 µM; in the assay on RXF 393 renal it was 79.1 µM; in the assay with SK-MEL-2 melanoma, 45.8 µM; with SNB-19 CNS it was over 100 µM.

In the case of `ClCC#CCSc1ncnc2c1ncn2CC#CCCl`, the GI50 was 1.66 µM with 786-0 renal; 1.98 µM in the assay with ACHN renal; 1.28 µM in the assay with HOP-62 NSCLC; 2.41 µM in the assay with HS 578T breast; 0.503 µM with LOX IMVI melanoma; 1.47 µM in the assay on M14 melanoma. The GI50 in the assay on MCF7 breast is 1.18 µM; in the assay on RXF 393 renal, 1.01 µM; in the assay on SK-MEL-2 melanoma it was 1.75 µM; in the assay on SNB-19 CNS it was 1.64 µM. In addition, the TGI in the assay on 786-0 renal was 3.41 µM; with ACHN renal, 5.5 µM; with HOP-62 NSCLC it was 2.67 µM; in the assay with HS 578T breast it was 9.8 µM; with LOX IMVI melanoma, 2 µM; in the assay on M14 melanoma, 3.13 µM. Also, the TGI in the assay with MCF7 breast was found to be 3.62 µM; with RXF 393 renal it was 2.29 µM; in the assay on SK-MEL-2 melanoma, 4.79 µM; with SNB-19 CNS, 3.61 µM.

With `COc1c(N2CCN(Cn3c(O)c(N=NC(=O)c4ccncc4)c4cc(F)ccc43)C(C)C2)c(F)cc2c(=O)c(C(=O)O)cn(C3CC3)c12` (centres undefined), the GI50 with 786-0 renal was 22.3 µM; in the assay on ACHN renal, 12.5 µM; in the assay with HOP-62 NSCLC, 21.7 µM; with HS 578T breast it was 0.294 µM; in the assay with LOX IMVI melanoma, 24.1 µM; with M14 melanoma, 32.9 µM. Further, the GI50 was 12.4 µM in the assay with MCF7 breast, 8.44 µM in the assay with RXF 393 renal, over 50 µM in the assay on SK-MEL-2 melanoma and 32.5 µM in the assay on SNB-19 CNS. For the same molecule, the TGI in the assay on 786-0 renal was over 50 µM; with ACHN renal, over 50 µM; in the assay with HOP-62 NSCLC it was over 50 µM; in the assay with HS 578T breast it was 13.8 µM; in the assay with LOX IMVI melanoma, over 50 µM; in the assay with M14 melanoma it was over 50 µM. For the same molecule, the TGI was over 50 µM in the assay with MCF7 breast, 20.6 µM in the assay on RXF 393 renal, over 50 µM in the assay with SK-MEL-2 melanoma and over 50 µM with SNB-19 CNS.

For `O=[N+]([O-])c1cc(F)c2cccnc2c1O`, the GI50 was 10.2 µM with 786-0 renal; 6.06 µM with ACHN renal; 13.6 µM in the assay on HOP-62 NSCLC; 35.8 µM with HS 578T breast; 4.63 µM with LOX IMVI melanoma; 7.56 µM in the assay on M14 melanoma. For the same molecule, the GI50 is 17.4 µM in the assay with MCF7 breast, 17.5 µM in the assay with RXF 393 renal, 10.1 µM in the assay with SK-MEL-2 melanoma and 9.24 µM in the assay with SNB-19 CNS. Also, the TGI in the assay with 786-0 renal was 94.6 µM; with ACHN renal, 79.7 µM; in the assay on HOP-62 NSCLC, over 100 µM; with HS 578T breast, over 100 µM; in the assay with LOX IMVI melanoma, over 100 µM; in the assay with M14 melanoma, 40.9 µM. In addition, the TGI in the assay on MCF7 breast is 74.9 µM; in the assay with RXF 393 renal, 76.3 µM; with SK-MEL-2 melanoma, 94.4 µM; with SNB-19 CNS it was over 100 µM.
